# In US9504676B2, “Molecules inhibiting a metabolic pathway involving the Syk protein tyrosine kinase and method for identifying said molecules” (CENTRE NATIONAL DE LA RECHERCHE SCIENTIFIQUE, priority 2008, dated 2016):
# Like-named read-outs stand apart in the source and are kept apart here.
# How the values were obtained:
# RBL-2H3 cells = assay: cells; format: cell-based, rat; settings: for IC50: Rattus norvegicus
# Procedure, shortened: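 RBL-2H3 rat basophils sensitized 12-16 h with anti-DNP IgE (0.5 μg/ml), pretreated 90 min at 37° C with compound (DMF 0.25% vehicle), then stimulated 45 min with DNP-BSA (50 ng ml^−1) or ionomycin (1.5 μM). Degranulation read as β-hexosaminidase release.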
# Syk protein = target: T1, Syk protein (UniProt P48025); assay: In vitro affinity for Syk by fluorescence spectroscopy (spectrofluorometry); format: binding; settings: read-out: Kd: dissociation constant with respect to Syk
# T1 construct: none given for this test; fused on or other part: probably GST at the N-terminus (GST:Syk 6-242), if the ADA protein was also used here
# Description: The dissociation constant of the molecules according to the invention with respect to Syk protein may particularly be measured in vitro by means of fluorescence spectroscopy (or spectrofluorometry).
# Finally, the in vitro affinity of the molecule C-13 and some of the 87 molecules mentioned above for Syk protein was measured by means of fluorescence spectroscopy (or spectrofluorometry) and is expressed by the dissociation constant (or Kd) in μmole/liter (μM).
# [1] = RBL-2H3 cells, read-out: Degran. IC50: concentration inhibiting mast cell degranulation by 50%
# [2] = RBL-2H3 cells, 0 to 40 μM, read-out: concentration inhibiting mast cell degranulation by 50% in vitro
IC50 (RBL-2H3 cells; [1]) [µg/mL],Kd (Syk protein) [µM],IC50 (RBL-2H3 cells; [2]) [µM],SMILES,ionomycin-induced degranulation (RBL-2H3 cells),"IC50 (RBL-2H3 cells; RBL-2H3, read-out: Degran. IC50: concentration inhibiting mast cell degranulation by 50%) [µg/mL]"
> 10,5,–,"O=C(C1=C(O)C(=O)N(Cc2cccnc2)C1c1cccc(Oc2ccccc2)c1)c1ccc(Cl)cc1 (stereo not shown) [Molecule 1, 4-(4-chlorobenzoyl)-3-hydroxy-5-(3-phenoxyphenyl)-1-(3-pyridinylmethyl)-1,5-dihydro-2H-pyrrol-2-one]",–,–
> 10,16.3,–,COc1ccc(C2C(C(=O)c3cccs3)=C(O)C(=O)N2CCCn2ccnc2)c(OC)c1 (stereo not shown) [Molecule 2],–,–
> 10,6.2,–,"CCOC(=O)C1=C(C)NC2=C(C(=O)c3ccccc32)C1c1cc(Br)ccc1OCC(=O)O (stereo not shown) [Molecule 3, {4-bromo-2-[3-(ethoxy carbonyl)-2-methyl-5-oxo-4,5-dihydro-1H-indeno[1,2-b]pyridin-4-yl]phenoxy} acetic acid]",–,–
> 10,9.4,–,"COc1cccc(C2C(C(=O)c3ccc(C)cc3)=C(O)C(=O)N2CCCN2CCOCC2)c1 (stereo not shown) [Molecule 4, 3-hydroxy-5-(3-methoxyphenyl)-4-(4-methylbenzoyl)-1-[3-(4-morpholinyl)propyl]-1,5-dihydro-2H-pyrrol-2-one]",–,–
> 10,6.1,–,CCOC(=O)c1ccc(N2C(=O)C(O)=C(C(=O)c3ccccc3)C2c2ccc(ON)cc2OC)cc1 (stereo not shown) [Molecule 6],–,–
~10,6.3,–,"CCOC(=O)c1sc(N2C(=O)C(O)=C(C(=O)c3ccc(F)cc3)C2c2ccc(C)cc2)nc1C (stereo not shown) [Molecule 10, ethyl 2-[3-(4-fluorobenzoyl)-4-hydroxy-2-(4-methylphenyl)-5-oxo-2,5-dihydro-1H-pyrrol-1-yl]-4-methyl-1,3-thiazole-5-carboxylate]",–,–
~2.5,5.6,–,"COc1ccccc1C(=O)Nc1ccc(-c2nnc(SCC(=O)c3ccccc3)n2C)cc1 [Molecule 15, 2-methoxy-N-(4-(4-methyl-5-[(2-oxo-2-phenylethyl)thio]-4H-1,2,4-triazol-3-yl)phenyl)benzamide]",–,–
> 10,17.9,–,"COc1ccc(C)cc1NC(=O)c1ccc(CN2CCC(Cc3ccccc3)CC2)cc1 [Molecule 17, 4-[(4-benzyl-1-piperidinyl)methyl}-N-(2-methoxy-5-methylphenyl)benzamide]",–,–
> 10,0.8,–,COc1ccc(S(=O)(=O)N(CCc2ccccc2)CC(=O)Nc2ccc(C(N)=O)cc2)cc1 [Molecule 18],–,–
~10,6.7,–,O=C(NCc1nnc(NCc2nc3ccccc3c(=O)[nH]2)n1-c1ccccc1)c1ccccc1F [Molecule 29],–,–
> 10,3,–,"O=C(Nc1ccccc1)c1ccc(NCCN2CCOCC2)c(S(=O)(=O)N2CCOCC2)c1 [Molecule 46, 4-{[2-(4-morpholinyl)ethyl]amino}-3-(4-morpholinylsulphonyl)-N-phenylbenzamide]",–,–
~10,5.5,–,"Cc1cc(C(=O)Nc2ccccc2C(=O)O)ccc1NC(=O)COc1ccc(C(C)C)cc1 [Molecule 49, 2-[(4-{[(4-isopropylphenoxy)acetyl]amino}-3-methylbenzoyl)amino] benzoic acid]",–,–
~5,1.6,–,"CCOC(=O)c1ccc(NC(=O)CSc2nnc(-c3ccco3)c(-c3ccco3)n2)cc1 [Molecule 54, ethyl 4-({[(5,6-di-2-furyl-1,2,4-triazin-3-yl)thio]acetyl}amino)benzoate]",–,–
~2,8.2,~5,COc1cc(-c2nnc(SCC(=O)Nc3ccc(Cl)cc3)n2CCc2ccccc2)cc(OC)c1OC [Molecule 59],–,–
~2,21.8,~5,CCOC(=O)c1ccc(NC(=O)CC2C(=O)N(c3ccc(Cl)cc3)C(=S)N2Cc2cccnc2)cc1 (stereo not shown) [Molecule 61],–,–
~5,8,–,"C=CCn1c(SCC(=O)Nc2cccc(OC)c2)nnc1C(C)NC(=O)c1ccccc1 (stereo not shown) [Molecule 66, N-{1-[4-allyl-5-({2-[(3-methoxyphenyl)amino]-2-oxoethyl}thio)-4H-1,2,4-triazol-3-yl]ethyl} benzamide]",–,–
~5,4.8,–,C=CCn1c(CNC(=O)c2cccc(C)c2)cnc1SCC(=O)Nc1cccc(C(=O)OC(C)C)c1 [Molecule 75],–,–
~7,3.2,–,CCn1c(CCC(=O)c2ccc(Cl)cc2)nnc1SCC(=O)Nc1ccc(Br)c(C)c1C [Molecule 82],–,–
~7,15.6,–,"CCOc1ccc(NC(=O)CC2C(=O)N(c3ccc(OC)cc3)C(=S)N2CCN2CCOCC2)cc1 (stereo not shown) [Molecule 84, N-(4-ethoxyphenyl)-2-{1-(4-methoxyphenyl)-3-[2-(4-morpholinyl)ethyl]-5-oxo-2-thioxo-4-imidazolidinyl}acetamide]",–,–

SMILES,IC50 (RBL-2H3 cells; [1]) [µg/mL],Kd (Syk protein) [µM],IC50 (RBL-2H3 cells; [2]) [µM],ionomycin-induced degranulation (RBL-2H3 cells),"IC50 (RBL-2H3 cells; RBL-2H3, read-out: Degran. IC50: concentration inhibiting mast cell degranulation by 50%) [µg/mL]"
"COC(=O)c1ccccc1-c1ccc(/C=C2/SC(=S)N(Cc3ccccc3)C2=O)o1 [Molecule C-13, methyl 2-{5-[(3-benzyl-4-oxo-2-thioxo-1,3-thiazolidin-5-ylidene)methyl]-2-furyl}benzoate]",–,4.8 ± 0.2,–,not detectably affected,1
